According to the NIST ThermoML archive (doi:10.1021/je800837z):
Numbers after ± are expanded uncertainties.

Conditions: Crystal; DTA

- Normal melting temperature: 180.00 ± 1.1 °C
Structure (SMILES): CCN1CCN(C(=O)N[C@H](C(=O)N[C@H]2C(=O)N3C(C(=O)[O-])=C(CSc4nnnn4C)CS[C@@H]23)c2ccc(O)cc2)C(=O)C1=O.[Na+]
